Values of other authors as cited in PubChem BioAssay AID1259409 (Chemical Carcinogenesis Research Information System (CCRIS), 2018).

Tested on: rodent chemically induced tumor inhibition, incidence and multiplicity
Experiment: CCRIS tumor inhibitor studies
Settings: Carcinogen: DIETHYLNITROSAMINE, 55-18-5, Dose [Inhibitor]: 0, Route [Inhibitor]: ORAL, Species: RAT, Strain/Sex: BD6/FEMALE, Promoter: NONE USED

In the case of O=C1O[C@H]([C@@H](O)CO)C(O)=C1O, the “tumour outcome (control, treated, inhibition, significance)” value (3 G/L IN DRINKING WATER BEGINNING 1 D PRIOR TO FIRST CARCINOGEN DOSE AND CONTINUING TO 2 D POST LAST CARCINOGEN DOSE, Target Tissue: Type of Lesion: LIVER: TUMOR, Dose [Carcinogen]: 80 MG/KG BW 1/WK FOR 8 WK) is listed as 94%, 90%, 4%, not significant, the “tumour outcome (control, treated, inhibition, significance)” value (3 G/L IN DRINKING WATER FOR DURATION OF STUDY BEGINNING 1 D PRIOR TO FIRST CARCINOGEN DOSE (STUDY DURATION: 6 MO), Target Tissue: Type of Lesion: ESOPHAGUS: TUMOR, Dose [Carcinogen]: 80 MG/KG BW 1/WK FOR 6 WK) is listed as 14%, 0%, 100%, not significant and the “tumour outcome (control, treated, inhibition, significance)” value (3 G/L IN DRINKING WATER FOR DURATION OF STUDY BEGINNING 1 D PRIOR TO FIRST CARCINOGEN DOSE (STUDY DURATION: 6 MO), Target Tissue: Type of Lesion: ESOPHAGUS: TUMOR, Dose [Carcinogen]: 80 MG/KG BW 1/WK FOR 10 WK) is listed as 35%, 19%, 46%, not significant. For the same compound, the “tumour outcome (control, treated, inhibition, significance)” value (3 G/L IN DRINKING WATER FOR DURATION OF STUDY BEGINNING 1 D PRIOR TO FIRST CARCINOGEN DOSE (STUDY DURATION: 6 MO), Target Tissue: Type of Lesion: LIVER: TUMOR, Dose [Carcinogen]: 80 MG/KG BW 1/WK FOR 6 WK) was 52%, 25%, 52%, not significant, the “tumour outcome (control, treated, inhibition, significance)” value (3 G/L IN DRINKING WATER FOR DURATION OF STUDY BEGINNING 1 D PRIOR TO FIRST CARCINOGEN DOSE (STUDY DURATION: 6 MO), Target Tissue: Type of Lesion: LIVER: TUMOR, Dose [Carcinogen]: 80 MG/KG BW 1/WK FOR 10 WK) was 100%, 96%, 4%, not significant and the “tumour outcome (control, treated, inhibition, significance)” value (3 G/L IN DRINKING WATER FOR DURATION OF STUDY BEGINNING 2 D POST CARCINOGEN TREATMENT (STUDY DURATION: 6 MO), Target Tissue: Type of Lesion: ESOPHAGUS: TUMOR, Dose [Carcinogen]: 80 MG/KG BW 1/WK FOR 10 WK) was 35%, 10%, 71%, not significant. For the same compound, the “tumour outcome (control, treated, inhibition, significance)” value (10 G/L IN DRINKING WATER BEGINNING 1 D PRIOR TO FIRST CARCINOGEN DOSE AND CONTINUING TO 2 D POST LAST CARCINOGEN DOSE, Target Tissue: Type of Lesion: ESOPHAGUS: TUMOR, Dose [Carcinogen]: 80 MG/KG BW 1/WK FOR 8 WK) was 31%, 32%, -3%, not significant, the “tumour outcome (control, treated, inhibition, significance)” value (10 G/L IN DRINKING WATER BEGINNING 1 D PRIOR TO FIRST CARCINOGEN DOSE AND CONTINUING TO 2 D POST LAST CARCINOGEN DOSE, Target Tissue: Type of Lesion: LIVER: TUMOR, Dose [Carcinogen]: 80 MG/KG BW 1/WK FOR 8 WK) was 94%, 95%, -1%, not significant and the “tumour outcome (control, treated, inhibition, significance)” value (10 G/L IN DRINKING WATER FOR DURATION OF STUDY BEGINNING 1 D PRIOR TO FIRST CARCINOGEN DOSE (STUDY DURATION: 6 MO), Target Tissue: Type of Lesion: ESOPHAGUS: TUMOR, Dose [Carcinogen]: 80 MG/KG BW 1/WK FOR 10 WK) was 35%, 28%, 20%, not significant. For the same compound, the “tumour outcome (control, treated, inhibition, significance)” value (10 G/L IN DRINKING WATER FOR DURATION OF STUDY BEGINNING 1 D PRIOR TO FIRST CARCINOGEN DOSE (STUDY DURATION: 6 MO), Target Tissue: Type of Lesion: LIVER: TUMOR, Dose [Carcinogen]: 80 MG/KG BW 1/WK FOR 10 WK) was 100%, 88%, 12%, not significant, the “tumour outcome (control, treated, inhibition, significance)” value (10 G/L IN DRINKING WATER FOR DURATION OF STUDY BEGINNING 2 D POST CARCINOGEN TREATMENT (STUDY DURATION: 6 MO), Target Tissue: Type of Lesion: ESOPHAGUS: TUMOR, Dose [Carcinogen]: 80 MG/KG BW 1/WK FOR 10 WK) was 35%, 33%, 6%, not significant and the “tumour outcome (control, treated, inhibition, significance)” value (10 G/L IN DRINKING WATER FOR DURATION OF STUDY BEGINNING 2 D POST CARCINOGEN TREATMENT (STUDY DURATION: 6 MO), Target Tissue: Type of Lesion: LIVER: TUMOR, Dose [Carcinogen]: 80 MG/KG BW 1/WK FOR 10 WK) was 100%, 100%, 0%, not significant. The “tumour outcome (control, treated, inhibition, significance)” value (15 G/L IN DRINKING WATER BEGINNING 1 D PRIOR TO FIRST CARCINOGEN DOSE AND CONTINUING TO 2 D POST LAST CARCINOGEN DOSE, Target Tissue: Type of Lesion: ESOPHAGUS: TUMOR, Dose [Carcinogen]: 80 MG/KG BW 1/WK FOR 8 WK) was 31%, 26%, 16%, not significant and the “tumour outcome (control, treated, inhibition, significance)” value (15 G/L IN DRINKING WATER BEGINNING 1 D PRIOR TO FIRST CARCINOGEN DOSE AND CONTINUING TO 2 D POST LAST CARCINOGEN DOSE, Target Tissue: Type of Lesion: LIVER: TUMOR, Dose [Carcinogen]: 80 MG/KG BW 1/WK FOR 8 WK) was 94%, 90%, 4%, not significant.
